The values below are quoted from earlier work in patent publication US20020086070A1, “Anti-inflammatory and connective tissue repair formulations” (priority 2000, published 2002).

One data set relates to COX-2 over COX-1. The note with it: specificity for COX-2 over COX-1.
The target of data set [1] is cyclooxygenase-2 induction. The note with it: TNFalpha-dependent induction; read-out: IC(50) for suppression of TNFalpha-dependent cyclooxygenase-2 induction.
The test system of data set [2] is arachidonic acid-induced inflammatory ear edema. The note with it: mice.
For the next data set, the system named is skin tumor formation. The conditions noted are these: following initiation with a chemical challenge.

Consider `CC(=O)Oc1ccccc1C(=O)O` [aspirin], for which, in the data set with COX-2 over COX-1, the COX-2 specificity was 0.6.
Consider `CC(C)=CCC1=C(O)[C@](O)(CC=C(C)C)C(=O)C(C(=O)CC(C)C)=C1O` [humulon], for which, in data set [1], the IC50 is about 30 nM. In addition, in data set [2], the “inhibition of arachidonic acid-induced inflammatory ear edema” value is reported as “inhibited”. In addition, the “inhibition of skin tumor formation” value with skin tumor formation was “inhibited skin tumor formation”.
